Source: US7186862B2, “Microbicidal agents on the basis of biphenylbenzamide derivatives” (Bayer CropScience AG, priority 2002, dated 2007)

Tests used:
Venturia inaequalis = assay: Venturia test (apple)/protective; assay type: in vivo; conditions: 240 h, application rate 100 g/ha, apple plants, protective spray, evaluation 10 days after inoculation, 100% = no infection, read-out: Efficacy in %
Experimental: (§1) [table] To produce a suitable preparation of active compound, 1 part by weight of active compound is mixed with the stated amounts of solvent and emulsifier, and the concentrate is diluted with water to the desired concentration. To test for protective activity, young plants are sprayed with the preparation of active compound at the stated application rate. After the spray coating has dried on, the plants are inoculated with an aqueous conidia suspension of the apple scab pathogen Venturia inaequalis and then remain in an incubation cabin at about 20° C. and 100% relative atmospheric humidity for 1 day. The plants are then placed in a greenhouse at about 21° C. and a relative atmospheric humidity of about 90%. Evaluation is carried out 10 days after the inoculation. 0% means an efficacy which corresponds to that of the control, whereas an efficacy of 100% means that no infection is observed.

Podosphaera leucotricha = assay: Podosphaera test (apple)/protective; assay type: in vivo; conditions: 240 h, application rate 100 g/ha, apple plants, protective spray, evaluation 10 days after inoculation, 100% = no infection, read-out: Efficacy in %
Experimental: as §1, with “spore” for “conidia”, “mildew” for “scab”, “Podosphaera leucotricha.” for “Venturia inaequalis and then remain in an incubation cabin at about 20° C. and 100% relative atmospheric humidity for 1 day.”, “23°” for “21°”, “70%.” for “90%.”

Sphaerotheca fuliginea = assay: Sphaerotheca test (cucumber)/protective; assay type: in vivo; conditions: Podosphaera fuliginea, 168 h; application rate 100 g/ha; cucumber plants, protective spray; evaluation 7 days after inoculation; 100% = no infection; read-out: Efficacy in %
Experimental: as §1, with “aqueous spore” for “aqueous conidia”, “of Sphaerotheca fuliginea.” for “of the apple scab pathogen Venturia inaequalis and then remain in an incubation cabin at about 20° C. and 100% relative atmospheric humidity for 1 day.”, “about 23°” for “about 21°”, “about 70%.” for “about 90%.”, “out 7” for “out 10”

[1] = logP determination by HPLC on reversed-phase column (EEC Directive 79/831); assay type: physicochemical; conditions: 0.1% aqueous phosphoric acid/acetonitrile gradient; for chromatographic logP: reversed-phase HPLC column (C18), pH 2.3, reversed-phase C18, 43° C.; for logP (pH 2.3): reversed-phase C18, 43° C.
Experimental: The logP values given in the tables and preparation examples above are determined in accordance with EEC Directive 79/831 Annex V.48 by HPLC (High Performance Liquid Chromatography) on a reversed-phase column (C18). Temperature: 43° C. The determination is carried out in the acidic range at pH 2.3 using the mobile phases 0.1% aqueous phosphoric acid and acetonitrile; linear gradient from 10% acetonitrile to 90% acetonitrile. Calibration is carried out using unbranched […] (of 3 to 16 carbon atoms) with known logP values (determination of the logP values by the retention time using linear interpolation between two successive alkanones).

Alternaria solani = assay: Alternaria test (tomato)/protective; assay type: in vivo; conditions: application rate 750 g/ha; tomato plants, protective spray, inoculation 1 day after treatment; evaluation 7 days after inoculation; 100% = no infection
Experimental: [table] To produce a suitable p reparation of active compound, 1 part by weight of active compound is mixed with the stated amounts of solvent and emulsifier, and the concentrate is diluted with water to the desired concentration. To test for protective activity, young tomato plants are sprayed with the preparation of active compound at the stated application rate. 1 day after the treatment, the plants are inoculated with a spore suspension of Alternaria solani and are then kept at 100% relative atmospheric humidity and 20° C. for 24 h. The plants are then kept at 96% relative atmospheric humidity and a temperature of 20° C. Evaluation is carried out 7 days after the inoculation. 0% means an efficacy which corresponds to that of the control, whereas an efficacy of 100% means that no infection is observed.

Row | Structure (SMILES) | logP (pH 2.3) [1] | other results
1 | O=C(Nc1ccccc1-c1ccc(Cl)cc1)c1ccccc1C(F)(F)F [Compound 1] | – | pest or weed control at 100 g/ha (Venturia inaequalis): 97%; pest or weed control at 100 g/ha (Podosphaera leucotricha): 100%; pest or weed control at 100 g/ha (Sphaerotheca fuliginea): 94%; chromatographic logP [1]: 3.73
2 | O=C(Nc1ccccc1-c1ccc(Cl)cc1Cl)c1ccccc1C(F)(F)F [Compound 2] | – | pest or weed control at 100 g/ha (Podosphaera leucotricha): 100%; pest or weed control at 100 g/ha (Sphaerotheca fuliginea): 94%; chromatographic logP [1]: 4
3 | Cc1cc(Cl)ccc1-c1ccccc1NC(=O)c1ccccc1C(F)(F)F [Compound 3] | – | pest or weed control at 100 g/ha (Venturia inaequalis): 100%; pest or weed control at 100 g/ha (Podosphaera leucotricha): 99%; pest or weed control at 100 g/ha (Sphaerotheca fuliginea): 100%; chromatographic logP [1]: 4.14
4 | O=C(Nc1ccccc1-c1ccc(Br)cc1)c1ccccc1C(F)(F)F [Compound 5] | – | Efficacy in % (Alternaria solani): 94%; chromatographic logP [1]: 4.03
5 | O=C(Nc1ccccc1-c1ccc(C(F)(F)F)cc1)c1ccccc1C(F)(F)F [Compound 6] | 4.05 | –
6 | O=C(Nc1ccccc1-c1ccc(OC(F)(F)F)cc1)c1ccccc1C(F)(F)F [Compound 8] | 4.20 | –
7 | CSc1ccc(-c2ccccc2NC(=O)c2ccccc2C(F)(F)F)cc1 [Compound 9] | 3.89 | –
8 | O=C(Nc1ccccc1-c1ccc(C(F)(F)F)cc1)c1ccccc1Cl [Compound 11] | 3.89 | –
9 | O=C(Nc1ccccc1-c1cccc(Cl)c1)c1ccccc1Cl [Compound 12] | – | pest or weed control at 100 g/ha (Venturia inaequalis): 100%; pest or weed control at 100 g/ha (Podosphaera leucotricha): 100%; chromatographic logP [1]: 3.75
10 | O=C(Nc1ccccc1-c1ccc(OC(F)(F)F)cc1)c1ccccc1Cl [Compound 13] | 4.08 | –
11 | CSc1ccc(-c2ccccc2NC(=O)c2ccccc2Cl)cc1 [Compound 14] | 3.75 | –
12 | O=C(Nc1ccccc1-c1ccc(F)cc1)c1ccccc1Cl [Compound 15] | 3.40 | –
13 | O=C(Nc1ccccc1-c1ccc(Br)cc1)c1ccccc1Br [Compound 16] | 3.91 | –
14 | O=C(Nc1ccccc1-c1ccc(C(F)(F)F)cc1)c1ccccc1Br [Compound 17] | 3.94 | –
15 | O=C(Nc1ccccc1-c1ccc(OC(F)(F)F)cc1)c1ccccc1Br [Compound 19] | 4.08 | –
16 | CSc1ccc(-c2ccccc2NC(=O)c2ccccc2Br)cc1 [Compound 20] | 3.78 | –
17 | O=C(Nc1ccccc1-c1ccc(F)cc1)c1ccccc1Br [Compound 21] | 3.42 | –
18 | Cc1ccccc1C(=O)Nc1ccccc1-c1ccc(Br)cc1 [Compound 22] | 3.86 | –
19 | Cc1ccccc1C(=O)Nc1ccccc1-c1ccc(C(F)(F)F)cc1 [Compound 23] | 3.86 | –
20 | Cc1ccccc1C(=O)Nc1ccccc1-c1cccc(Cl)c1 [Compound 24] | 3.72 | –
21 | Cc1ccccc1C(=O)Nc1ccccc1-c1ccc(OC(F)(F)F)cc1 [Compound 25] | 4.03 | –
22 | CSc1ccc(-c2ccccc2NC(=O)c2ccccc2C)cc1 [Compound 26] | 3.72 | –
23 | O=C(Nc1ccccc1-c1ccc(Br)cc1)c1ccccc1I [Compound 27] | 4.00 | –

Row | Structure (SMILES) | logP (pH 2.3) [1] | other results
24 | O=C(Nc1ccccc1-c1ccc(C(F)(F)F)cc1)c1ccccc1I [Compound 28] | 4.03 | –
25 | O=C(Nc1ccccc1-c1cccc(Cl)c1)c1ccccc1I [Compound 29] | 3.86 | –
26 | O=C(Nc1ccccc1-c1ccc(OC(F)(F)F)cc1)c1ccccc1I [Compound 30] | 4.21 | –
27 | CSc1ccc(-c2ccccc2NC(=O)c2ccccc2I)cc1 [Compound 31] | 3.86 | –
28 | O=C(Nc1ccccc1-c1ccc(F)cc1)c1ccccc1I [Compound 32] | 3.55 | –
29 | O=C(Nc1ccccc1-c1ccc(Cl)c(F)c1)c1ccccc1C(F)(F)F [Compound 34] | – | pest or weed control at 100 g/ha (Venturia inaequalis): 100%; pest or weed control at 100 g/ha (Podosphaera leucotricha): 100%; pest or weed control at 100 g/ha (Sphaerotheca fuliginea): 95%; chromatographic logP [1]: 3.76
30 | O=C(Nc1ccccc1-c1ccc(F)c(Cl)c1)c1ccccc1C(F)(F)F [Compound 35, N-(3′-chloro-4′-fluoro-1,1′-biphenyl-2-yl)-2-(trifluoromethyl)benzamide] | – | pest or weed control at 100 g/ha (Venturia inaequalis): 100%; pest or weed control at 100 g/ha (Podosphaera leucotricha): 100%; pest or weed control at 100 g/ha (Sphaerotheca fuliginea): 93%; chromatographic logP [1]: 3.81
31 | O=C(Nc1ccccc1-c1ccc(F)cc1F)c1ccccc1C(F)(F)F [Compound 36] | 3.41 | –
32 | O=C(Nc1ccccc1-c1ccc(OC(F)(F)F)c(F)c1)c1ccccc1C(F)(F)F [Compound 37] | 4.08 | –
33 | O=C(Nc1ccccc1-c1ccc(Cl)c(C(F)(F)F)c1)c1ccccc1C(F)(F)F [Compound 38] | 4.18 | –
34 | Cc1ccc(-c2ccccc2NC(=O)c2ccccc2C(F)(F)F)cc1C(F)(F)F [Compound 39] | 4.18 | –
35 | O=C(Nc1ccccc1-c1ccc(OC(F)(F)F)c(C(F)(F)F)c1)c1ccccc1C(F)(F)F [Compound 40] | 4.41 | –
36 | O=C(Nc1ccccc1-c1ccc(F)c(C(F)(F)F)c1)c1ccccc1C(F)(F)F [Compound 41] | – | pest or weed control at 100 g/ha (Podosphaera leucotricha): 94%; pest or weed control at 100 g/ha (Sphaerotheca fuliginea): 100%; chromatographic logP [1]: 3.9
37 | Cc1cc(-c2ccccc2NC(=O)c2ccccc2C(F)(F)F)ccc1Cl [Compound 42, N-(4′-chloro-3′-methyl-1,1′-biphenyl-2-yl)-2-(trifluoromethyl)benzamide] | – | pest or weed control at 100 g/ha (Venturia inaequalis): 100%; pest or weed control at 100 g/ha (Podosphaera leucotricha): 100%; pest or weed control at 100 g/ha (Sphaerotheca fuliginea): 100%; chromatographic logP [1]: 4.18
38 | O=C(Nc1ccccc1-c1cc(Cl)cc(Cl)c1)c1ccccc1C(F)(F)F [Compound 43] | 4.16 | –
39 | O=C(Nc1ccccc1-c1ccc(Cl)c(Cl)c1)c1ccccc1I [Compound 44] | 4.06 | –
40 | O=C(Nc1ccccc1-c1ccc(Cl)cc1F)c1ccccc1C(F)(F)F [Compound 45] | 3.68 | –
41 | O=C(Nc1ccccc1-c1ccc(Cl)cc1)c1ccccc1I [Compound 46] | 3.74 | –
42 | O=C(Nc1ccc(F)cc1-c1ccc(Cl)c(Cl)c1)c1ccccc1C(F)(F)F [Compound 47] | 4.11 | –
43 | O=C(Nc1c(F)cccc1-c1ccc(Cl)c(Cl)c1)c1ccccc1C(F)(F)F [Compound 48] | 3.81 | –
44 | O=C(Nc1ccccc1-c1ccc(Cl)cc1)c1ccccc1Cl [Compound 49] | 3.64 | –
45 | O=C(Nc1ccccc1-c1ccc(Cl)cc1)c1ccccc1Br [Compound 50] | 3.66 | –
46 | O=C(Nc1ccccc1Br)c1ccccc1C(F)(F)F [IV-1, N-(2-bromophenyl)-2-(trifluoro-methyl)benzamide] | – | chromatographic logP [1]: 2.99
